Experimental data reported in patent publication US20090047246A1, “NOVEL INHIBITORS OF HEPATITIS C VIRUS REPLICATION” (InterMune, Inc., priority 2007, published 2009).

target: T1, HCV NS3 helicase (Hepatitis C virus genotype 1b, UniProt P26663); experiment: HCV Helicase Prompt FRET Assay (Example A); type: biochemical; conditions: HCV NS3 helicase; tables do not say whether Example A or Example B assay; read-out: IC50 Activity
T1 construct: full-length NS3 (1-631), purified at Array BioPharma
In short: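 Initial unwinding rates, monitored as FAM fluorescence gain (ex 485, em 535) over ~30 min at room temperature, gave IC50 via 4- or 5-parameter logistic fits. Reactions: 50 nM quenched duplex, 250 nM capture strand, 300 μM ATP, 5–6 nM NS3 1-631 after 5 min compound preincubation, MOPS pH 7.0 buffer, 2% DMSO.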

T1 sequence (P26663 1027-1657): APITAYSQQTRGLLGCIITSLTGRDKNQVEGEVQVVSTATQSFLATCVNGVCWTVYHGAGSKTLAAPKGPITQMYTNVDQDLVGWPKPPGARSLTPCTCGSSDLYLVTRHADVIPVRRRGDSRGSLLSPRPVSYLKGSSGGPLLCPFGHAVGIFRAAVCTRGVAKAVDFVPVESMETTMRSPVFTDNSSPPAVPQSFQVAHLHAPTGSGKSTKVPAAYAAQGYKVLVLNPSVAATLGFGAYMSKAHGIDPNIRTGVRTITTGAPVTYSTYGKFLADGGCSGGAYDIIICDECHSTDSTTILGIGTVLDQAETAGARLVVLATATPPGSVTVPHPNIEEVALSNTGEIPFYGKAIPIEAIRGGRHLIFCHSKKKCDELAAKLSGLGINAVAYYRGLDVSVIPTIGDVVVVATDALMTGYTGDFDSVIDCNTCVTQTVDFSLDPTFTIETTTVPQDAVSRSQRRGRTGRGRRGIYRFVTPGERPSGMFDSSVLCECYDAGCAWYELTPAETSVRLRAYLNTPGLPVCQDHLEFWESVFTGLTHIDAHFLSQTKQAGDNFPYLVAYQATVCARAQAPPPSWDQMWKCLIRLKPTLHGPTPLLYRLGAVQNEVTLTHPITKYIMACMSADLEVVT

Structure (SMILES)	IC50
CCOC(=O)C(F)(F)c1cn(-c2ccc([N+](=O)[O-])cc2C)c2ccc(Br)cc12 [Example 383]	10 to 50 µM
CSc1ccc2c(c1)c(CC(N)=O)cn2Cc1cccc(OCc2ccccc2)c1 [Example 201]	< 10 µM
Cc1cc([N+](=O)[O-])ccc1Cc1cn(-c2ccc([N+](=O)[O-])cc2C)c2ccc(Br)cc12 [Example 399]	10 to 50 µM
CN(Cc1cccc(Cl)c1)c1ccc(-n2cc(CC(=O)O)c3ccccc32)cc1 [Example 179]	< 10 µM
COC(=O)Cc1cn(-c2ccc([N+](=O)[O-])cc2C)c2ccc(Br)cc12 [Example 378]	> 50 µM
Cc1cc([N+](=O)[O-])ccc1-n1cc(C=CC(=O)O)c2cc(OCc3ccccc3)ncc21 [Example 333]	> 50 µM
O=C(O)Cc1c(C(=O)c2ccc(-c3ccccc3Br)cc2)[nH]c2ccccc12 [Example 270]	10 to 50 µM
COc1cccc(Oc2cccc(Cn3cc(CC(=O)O)c4ccccc43)c2)c1 [Example 479]	10 to 50 µM
CC(CO)N(Cc1ccccc1)c1ccc(-n2cc(CC(=O)O)c3ccccc32)cc1 (stereo not drawn) [Example 172]	< 10 µM
N#CCc1cn(Cc2csc3ccc(Cl)cc23)c2ccc(CNS(=O)(=O)c3ccccc3)cc12 [Example 209]	10 to 50 µM
Cc1cc([N+](=O)[O-])ccc1-n1cc(C(=O)O)c2cc(Br)ccc21 [Example 382]	> 50 µM
COc1cccc(CN(C)c2ccc(-n3cc(CC(=O)O)c4ccccc43)cc2)c1 [Example 177]	< 10 µM
O=C(OCc1ccccc1)C(Cc1ccccc1)c1cn(Cc2csc3ccc(Cl)cc23)c2cc(OCc3ccccc3)ccc12 (stereo not drawn) [Example 350]	> 50 µM
O=C(O)Cc1c(C(=O)c2ccc(-c3ccccc3Cl)cc2)[nH]c2ccccc12 [Example 254]	< 10 µM
Cc1cc([N+](=O)[O-])ccc1-n1cc(C(O)(C(=O)O)C(F)(F)F)c2cc(Br)ccc21 (stereo not drawn) [Example 392]	< 10 µM
Cc1cc([N+](=O)[O-])ccc1CC1CN(c2ccc([N+](=O)[O-])cc2C)c2ccc(Br)cc21 (stereo not drawn) [Example 405]	10 to 50 µM
O=C(O)Cc1cn(Cc2cccc(OCc3ccccc3)c2)c2ccc(Br)cc12 [Example 101]	< 10 µM
CC(C)(C)OC(=O)NCc1ccc2c(c1)c(Cc1nn[nH]n1)cn2Cc1csc2ccc(Cl)cc12 [Example 208]	< 10 µM
O=C(O)Cc1cn(Cc2cccc(Oc3ccccc3C(F)(F)F)c2)c2ccccc12 [Example 481]	< 10 µM
O=C(O)Cc1c(Cc2ccc(-c3ccccc3F)cc2)[nH]c2ccccc12 [Example 286]	10 to 50 µM

Structure (SMILES)	IC50
O=C(O)Cc1c(Cc2csc3ccc(Cl)cc23)n(CC2CC2)c2cc(OCc3ccccc3)ccc12 [Example 369]	< 10 µM
COc1ccc(N(C)c2cccc(Cn3cc(CC(=O)O)c4ccccc43)c2)cc1 [Example 528]	< 10 µM
O=C(O)Cc1cn(-c2ccc([N+](=O)[O-])cc2[N+](=O)[O-])c2ncc(Br)cc12 [Example 337]	10 to 50 µM
O=C(O)Cc1c(Cc2ccc(-c3ccccc3Br)cc2)[nH]c2ccccc12 [Example 287]	< 10 µM
Cc1cc([N+](=O)[O-])ccc1-n1cc(C(=O)C(=O)N2CCCC2)c2cc(Br)ccc21 [Example 401]	> 50 µM
CN(c1cccc(Cn2cc(CC(=O)O)c3ccccc32)c1)c1ccccc1C(F)(F)F [Example 529]	< 10 µM
CC(C)c1ccc(Cn2c(C(=O)N3CCCC3)c(CC(=O)O)c3cc(Br)ccc32)cc1 [Example 431]	10 to 50 µM
O=C(O)Cc1cn(Cc2csc3ccc(Cl)cc23)c2ccccc12 [Example 121]	10 to 50 µM
CC(C)c1ccc(Cn2c(C(=O)NCc3ccc(-c4ccccc4)cc3)c(CC(=O)O)c3cc(Br)ccc32)cc1 [Example 441]	10 to 50 µM
O=C(O)Cc1c(Cc2ccc(-c3ccccc3Cl)cc2)[nH]c2ccc(Br)cc12 [Example 739]	10 to 50 µM
COc1ccccc1N(C)c1cccc(Cn2cc(CC(=O)O)c3ccccc32)c1 [Example 526]	10 to 50 µM
Cc1cc([N+](=O)[O-])ccc1C(C(=O)O)C1CN(c2ccc([N+](=O)[O-])cc2C)c2ccc(Br)cc21 (stereo not drawn) [Example 404]	10 to 50 µM
O=C(O)Cc1cn(Cc2ccc(Oc3ccccc3C(F)(F)F)cc2)c2ccccc12 [Example 502]	< 10 µM
Cc1ccc(-c2ccc(C(=O)c3[nH]c4ccccc4c3CC(=O)O)cc2)cc1C [Example 262]	10 to 50 µM
COC(=O)C(Cc1ccc(C(C)C)cc1)c1cn(-c2ccc([N+](=O)[O-])cc2C)c2ccc(Br)cc12 (stereo not drawn) [Example 407]	> 50 µM
O=C(Cn1cc(Cc2nnn[nH]2)c2ccccc21)c1ccccc1 [Example 214]	10 to 50 µM
O=C(O)Cc1c(Cc2ccc(-c3ccccc3)cc2)oc2ccccc12 [Example 305]	10 to 50 µM
COc1ccc2c(c1)c(CC(=O)O)cn2Cc1csc2ccc(Cl)cc12 [Example 106]	10 to 50 µM
O=C(Cc1cn(Cc2cccc(OCc3ccccc3)c2)c2ccc(OCc3ccccc3)cc12)NS(=O)(=O)c1ccccc1 [Example 195]	< 10 µM

Now from value to molecule:

IC50	Structure (SMILES)
10 to 50 µM	COc1ccc(OC)c(Oc2cccc(Cn3cc(CC(=O)O)c4ccccc43)c2)c1 [Example 490]
> 50 µM	O=C(O)Cc1cn(CC(=O)O)c2cc(-c3ccccc3)ccc12 [Example 354]
< 10 µM	C=COc1ccc2c(CC(=O)O)cn(Cc3csc4ccc(Cl)cc34)c2c1 [Example 352]
< 10 µM	CC(C)c1ccc(Cn2cc(C(Cc3ccccc3)C(=O)O)c3ccccc32)cc1 (stereo not drawn) [Example 410]
10 to 50 µM	CC(C)c1ccc(Cn2c(C(=O)Nc3cccnc3)c(CC(=O)O)c3ccccc32)cc1 [Example 463]
> 50 µM	CCOC(=O)Cc1cn(Cc2ccc(Oc3cccc(F)c3)cc2)c2cc(-c3cccc(OC(C)=O)c3)ccc12 [Example 603]
< 10 µM	O=C(O)Cc1cn(Cc2ccc(Oc3cc(Cl)cc(Cl)c3)cc2)c2ccccc12 [Example 508]
10 to 50 µM	O=C(O)Cc1cn(Cc2cccc(Cl)c2)c2ccc(Br)cc12 [Example 108]
10 to 50 µM	Cc1ccc(CNC(=O)c2c(CC(=O)O)c3cc(Br)ccc3n2Cc2ccc(C(C)C)cc2)o1 [Example 444]
< 10 µM	CC(C)c1ccc(Cn2c(C(=O)NCc3cccc(F)c3)c(CC(=O)O)c3ccccc32)cc1 [Example 453]
< 10 µM	CC(C)c1ccc(Cn2c(C(=O)NCc3cccc(Cl)c3)c(CC(=O)O)c3ccccc32)cc1 [Example 451]
> 50 µM	CCOC(=O)Cc1cn(Cc2ccc(Oc3cccc(OCC)c3)cc2)c2cc(-c3cccc(OC(C)=O)c3)ccc12 [Example 604]
< 10 µM	CC(C)N(c1cccc(Cn2cc(CC(=O)O)c3ccccc32)c1)c1ccccc1C(F)(F)F [Example 555]
< 10 µM	Nc1cccc(-c2ccc3c(CC(=O)O)cn(Cc4csc5ccc(Cl)cc45)c3c2)c1 [Example 363]

same assay, conditions: Table 21, compounds made using Scheme 28; read-out: IC50 Activity

IC50	Structure (SMILES)
10 to 50 µM	COc1ccc(N(C)c2ccc(Cn3cc(CC(=O)O)c4ccccc43)cc2)cc1OC [Example 579]

same assay, conditions: Table 26, compounds made using Scheme 33; read-out: IC50 Activity

IC50	Structure (SMILES)
< 10 µM	O=C(O)Cc1cn(Cc2csc3ccc(Cl)cc23)c2cc(-c3ccccc3)ccc12 [Example 614]

same assay, conditions: Table 28, compounds made using Scheme 35; read-out: IC50 Activity

IC50	Structure (SMILES)
< 10 µM	CC(C)c1ccc(Cn2cc(CC(=O)O)c3ccc(-c4cc(N)cc(N)c4)cc32)cc1 [Example 619]

same assay, conditions: Table 31, compounds made using Schemes 38-45; read-out: IC50 Activity

IC50	Structure (SMILES)
< 10 µM	Nc1cc(-c2ccc3c(CC(=O)O)cn(Cc4csc5ccc(Cl)cc45)c3c2)nc(N)n1 [Example 629]
< 10 µM	CNc1cc(N)cc(-c2ccc3c(CC(=O)O)cn(Cc4csc5ccc(Cl)cc45)c3c2)c1 [Example 647]

same assay, conditions: Table 32, compounds made using Schemes 46-49; read-out: IC50 Activity

IC50	Structure (SMILES)
10 to 50 µM	N#Cc1ccc2c(CC(=O)O)cn(Cc3csc4ccc(Cl)cc34)c2c1 [Example 663]

same assay, conditions: Table 33, compounds made using Scheme 50; read-out: IC50 Activity

IC50	Structure (SMILES)
10 to 50 µM	Nc1ccnc(-c2ccc3c(CC(=O)O)cn(Cc4csc5ccc(Cl)cc45)c3c2)n1 [Example 667]

same assay, conditions: Table 34, compounds made using Schemes 51-52; read-out: IC50 Activity

IC50	Structure (SMILES)
< 10 µM	Nc1cc(N)cc(-c2ccc3c(CC(=O)NS(=O)(=O)C4CC4)cn(Cc4csc5ccc(Cl)cc45)c3c2)c1 [Example 688]
> 50 µM	OCCc1cn(Cc2csc3ccc(Cl)cc23)c2cc(Br)ccc12 [Example 694]

same assay, conditions: Table 35, compounds made using Scheme 53; read-out: IC50 Activity

IC50	Structure (SMILES)
10 to 50 µM	CCOC(=O)Cc1cn(Cc2cccc3nc(C)ccc23)c2cc(-c3cc(N)cc(N)c3)ccc12 [Example 791]
< 10 µM	Nc1cc(N)cc(-c2ccc3c(CC(=O)O)cn(Cc4cc5cc(Cl)ccc5s4)c3c2)c1 [Example 710]
10 to 50 µM	CCOC(=O)Cc1cn(Cc2cccc3sc(Cl)nc23)c2cc(-c3cc(N)cc(N)c3)ccc12 [Example 794]

same assay, conditions: Table 36, compounds made using Scheme 54; read-out: IC50 Activity

Structure (SMILES)	IC50
O=C(O)Cc1cn(Cc2csc3c(Cl)cccc23)c2cc(Br)ccc12 [Example 782]	> 50 µM
CCOC(=O)Cc1cn(Cc2csc3ccc(OC(F)(F)F)cc23)c2cc(-c3cc([N+](=O)[O-])cc([N+](=O)[O-])c3)ccc12 [Example 717]	10 to 50 µM

Further lines, results first:

IC50	Structure (SMILES)
< 10 µM	Nc1cc(N)cc(-c2ccc3c(CC(=O)O)cn(Cc4csc5cc(Cl)c(F)cc45)c3c2)c1 [Example 723]
< 10 µM	Cc1sc2ccc(Cl)cc2c1Cn1cc(CC(=O)O)c2ccc(-c3cc(N)cc(N)c3)cc21 [Example 778]

same assay, conditions: Table 37, compounds made using Scheme 55; read-out: IC50 Activity

IC50	Structure (SMILES)
> 50 µM	NC(=O)c1ccccc1-c1ccc2c(CC(=O)O)cn(Cc3csc4ccc(Cl)cc34)c2c1 [Example 762]

same assay, conditions: Table 38, compounds made using Scheme 56, Scheme 57 and Scheme 61; read-out: IC50 Activity

Structure (SMILES)	IC50
CN(C=O)c1cc(Cl)cc2c(Cn3cc(CC(=O)O)c4ccc(-c5cc(N)cc(N)c5)cc43)csc12 [Example 729]	10 to 50 µM
CC(C)(C)OC(=O)N(c1cc(Cl)cc2c(Cn3cc(CC(=O)O)c4ccc(Br)cc43)csc12)C1CC1 [Example 773]	> 50 µM
